Earlier results, collected in patent US20250205268A1, “TREATMENT OF VIRUSES WITH ANTIVIRAL NUCLEOSIDES” (priority 2021, published 2025).

Tested on: pestivirus and hepacivirus
Conditions: […] CHEMOTHER, 2003, 47 (1): 244-54; cited from earlier work

O=c1nc(NO)ccn1[C@@H]1O[C@H](CO)[C@@H](O)[C@H]1O [β-D-N(4)-hydroxycytidine, 1-((2R,3R,4S,5R)-3,4-dihydroxy-5-(hydroxymethyl)tetrahydrofuran-2-yl)-4-(hydroxyamino)pyrimidin-2 (1H)-one]
antiviral activities: antipestivirus and antihepacivirus activities
